Measurements taken from PMC9951879, “Synthesis of New Shogaol Analogues as NRF2 Activators and Evaluation of Their Anti-Inflammatory Activity, Modes of Action and Metabolic Stability” (Antioxidants, 2023).
Like-named read-outs stand apart in the source and are kept apart here.

What was measured:
[1] = tested on: GSTP1; experiment: qPCR gene expression in Hepa1c1c-7 cells: GSTP1; format: cell-based, mouse; conditions: 1 μM, 48 h, Hepa-1c1c7 cells
Procedure: (§1) Hepa1c1c-7 cells were treated with STCs (1 μM) for 48 h, and the total RNA was isolated using QIAzol®lysis reagent (Qiagen, Germany). Next, cDNA was synthesised using the ReverTra Ace® qPCR RT Master Mix Kit (Toyobo Research Reagents, Osaka, Japan). Quantitative PCR was performed using THUNDERBIRD^TM Next SYBR® qPCR Mix (Toyobo Research Reagents, Osaka, Japan) in CFX96 Touch Real-Time PCR Detection System (Bio-Rad Laboratories, San Jose, CA, USA). The genes tested and the respective primers (purchased from Integrated DNA Technologies, Coralville, IA, USA) used in the study are shown in Table 1. β-actin was used as a reference gene for the normalisation of target gene expression. The 2^−ΔΔCt method was used to measure the relative expression of target genes.

[2] = tested on: GPX2; experiment: qPCR gene expression in Hepa1c1c-7 cells: GPX2; format: cell-based, mouse; conditions: 1 μM, 48 h, Hepa-1c1c7 cells
Procedure: as §1

[3] = tested on: GCLC; experiment: qPCR gene expression in Hepa1c1c-7 cells: GCLC; format: cell-based, mouse; conditions: 1 μM, 48 h, Hepa-1c1c7 cells
Procedure: as §1

[4] = molecular target: T1, GSK-3β (Homo sapiens, UniProt P49841); experiment: GSK-3β kinase ADP-Glo assay; format: biochemical; conditions: ATP 25 μM, read-out: IC50, GSK-3β enzyme activity
T1 construct: purchased Promega
T1 sequence (P49841 whole entry): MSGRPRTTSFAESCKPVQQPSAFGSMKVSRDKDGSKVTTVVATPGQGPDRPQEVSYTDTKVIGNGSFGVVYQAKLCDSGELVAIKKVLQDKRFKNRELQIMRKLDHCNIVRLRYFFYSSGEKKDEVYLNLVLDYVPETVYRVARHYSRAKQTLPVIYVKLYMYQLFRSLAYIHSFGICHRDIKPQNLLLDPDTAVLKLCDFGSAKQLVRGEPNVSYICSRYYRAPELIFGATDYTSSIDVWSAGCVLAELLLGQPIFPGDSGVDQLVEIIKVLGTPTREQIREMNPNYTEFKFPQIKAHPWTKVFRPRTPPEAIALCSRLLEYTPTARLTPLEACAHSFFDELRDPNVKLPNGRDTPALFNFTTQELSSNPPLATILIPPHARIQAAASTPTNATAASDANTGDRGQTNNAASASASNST
Procedure: The effect of STCs on GSK-3β activity was determined using GSK-3β kinase enzyme (Promega, WI, USA) and ADP-Glo^TM kinase assay (Promega, USA) following the manufacturer’s protocol and reported method. The STCs were dissolved in the kinase buffer to prepare different concentrations (10, 1, 0.1, 0.01, and 0.001 μM). One microliter of the test compounds was added to each well (384 well plate), followed by the addition of 2 μL of GSK-3β kinase (1 ng), 2 μL of the GSK-3β substrate (0.4 μg), and 2 μL of the ATP (25 μM), and incubated for 60 min. Then, 5 μL of ADP-Glo^TM reagent was added and incubated further for 40 min. Then 10 μL of kinase detection reagent was added and incubated for 30 min. The luminescence was recorded using a SpectraMax®L microplate reader (Molecular Devices, San Jose, CA, USA). The IC50 (concentration of the test compound required to produce half-maximal […]) from dose-response curves using non-linear regression analysis using GraphPad Prism (9.5.0; San Diego, CA, USA) software.

[5] = tested on: G6PDX; experiment: qPCR gene expression in Hepa1c1c-7 cells: G6PDX; format: cell-based, mouse; conditions: 1 μM, 48 h, Hepa-1c1c7 cells
Procedure: as §1

[6] = tested on: IFN-γ; experiment: IFN-γ ELISA in LPSEc-stimulated BV-2 cells; format: cell-based, mouse; conditions: LPSEc 200 ng/mL; for IFN-γ level: 1 μM; for inhibition at 1 µM: Mus musculus, BV-2, 1 μM, read-out: percentage of IFN-γ inhibition
Procedure: (§2) The anti-inflammatory activity of the STCs was determined in E. coli lipopolysaccharide (LPSEc; Sigma Aldrich, USA)-induced inflammation in NRF2-proficient and NRF2 siRNA-transfected mouse microglial (BV-2) cells. The NRF2 was silenced in BV-2 cells using NRF2 siRNA (Santa Cruz Biotechnology, Dallas, TX, USA) in Opti-MEM transfection medium (Thermo Fisher Scientific, USA) using Lipofectamine^TM LTX reagent with PLUS^TM reagent (Thermo Fisher Scientific, USA) following the manufacturer’s protocol and reported method. The cells (5 × 10^5 cells/well) were allowed to form a monolayer by incubating them for 24 h and then adding LPSEc (200 ng/mL) for 4 h. The STCs (1 µM) were then added and incubated for another 20 h. The nitric oxide (NO) level in cell supernatant was determined using the Griess reagent kit (Thermo Fisher Scientific, USA). The levels of proinflammatory cytokines (IL-1β, IL-6, IFN-γ, and TNF-α) in cell supernatant solutions were determined using commercially available ELISA kits (Abcam, Cambridge, UK). The cell pellets were lysed using Cell Lysis buffer (Thermo Fisher Scientific, Waltham, MA, USA) following the manufacturer’s instructions. The supernatant solution in the wells was replaced with PBS, and cells were detached by scraping, washed with PBS, and centrifuged to collect the cell pellet. The cell pellet was lysed on ice in a cell lysis buffer for half an hour, vortexing at regular intervals. The cell lysate was centrifuged at 15,000 rpm for 15 min at 4 °C. The clear lysate was stored at −80 °C until further use. The protein concentration was determined using Bradford’s assay kit (Thermo Fisher Scientific, USA) following the manufacturer’s instructions. The expression of COX-2, NF-κB p65, NRF2, and HO-1 in cell lysates was determined using commercially available ELISA kits (Abcam, St, Louis, Missouri, USA) following the manufacturer’s protocol. In addition, the thiol content was determined using a thiol quantification assay kit (Abcam, USA).

[7] = tested on: GSTA4; experiment: qPCR gene expression in Hepa1c1c-7 cells: GSTA4; format: cell-based, mouse; conditions: 1 μM, 48 h, Hepa-1c1c7 cells
Procedure: as §1

[8] = Vybrant MTT cytotoxicity assay in Hepa-1c1c7 cells; format: cell-based; conditions: mouse, read-out: cell viability
Procedure: (§3) The safe dose of the test compounds on murine hepatoma (Hepa1c1c-7) and mouse microglial cells (BV-2) was assessed by determining their cytotoxicity using Vybrant® MTT Cell Proliferation Assay Kit (Thermo Fisher Scientific, USA) following the manufacturer’s protocol. In the case of BV-2 cells, the cytotoxicity of the test compounds was assessed together with E. coli lipopolysaccharide (LPSEc), 200 ng/mL. The cell density was 5 × 10^5 cells/well (in a 96-well plate), and they were preincubated for 24 h. The test compounds (10, 5, 2.5, 1.25, and 0.625 μM) were then added to each well (in triplicate) and incubated for another 24 h. The solution’s absorbance was measured using Spectramax (Molecular Devices, San Jose, California, USA) M3 microplate reader. The cell viability was calculated using the following formula, and the results are presented as mean ± SD. Percent cell viability %=Atreated cells−Ablank /Auntreated cells−Ablank×100%

[9] = Vybrant MTT cytotoxicity assay in BV-2 cells together with LPSEc; format: cell-based; conditions: mouse, BV-2 microglial cells, BV-2 cells plus LPSEc 200 ng/mL, read-out: cell viability
Procedure: as §3

[10] = tested on: free thiol content in NRF2-proficient BV-2 cells; experiment: Thiol quantification assay in BV-2 cells; format: cell-based, mouse
Procedure: as §2, with “The STCs (1 µM) were then added and incubated for another 20 h.” left out, “The cell pellets were lysed using Cell Lysis buffer (Thermo Fisher Scientific, Waltham, MA, USA) following the manufacturer’s instructions. The supernatant solution in the wells was replaced with PBS, and cells were detached by scraping, washed with PBS, and centrifuged to collect the cell pellet. The cell pellet was lysed on ice in a cell lysis buffer for half an hour, vortexing at regular intervals. The cell lysate was centrifuged at 15,000 rpm for 15 min at 4 °C. The clear lysate was stored at −80 °C until further use.” left out

[11] = tested on: NRF2; experiment: qPCR gene expression in Hepa1c1c-7 cells: NRF2; format: cell-based, mouse; conditions: 1 μM, 48 h, Hepa-1c1c7 cells
Procedure: as §1

[12] = tested on: NQO1; experiment: qPCR gene expression in Hepa1c1c-7 cells: NQO1; format: cell-based, mouse; conditions: 1 μM, 48 h, Hepa-1c1c7 cells
Procedure: as §1

[13] = tested on: GSTM2; experiment: qPCR gene expression in Hepa1c1c-7 cells: GSTM2; format: cell-based, mouse; conditions: 1 μM, 48 h, Hepa-1c1c7 cells
Procedure: as §1

[14] = tested on: GCLM; experiment: qPCR gene expression in Hepa1c1c-7 cells: GCLM; format: cell-based, mouse; conditions: 1 μM, 48 h, Hepa-1c1c7 cells
Procedure: as §1

[15] = tested on: IL-1β; experiment: IL-1β ELISA in LPSEc-stimulated BV-2 cells; format: cell-based, mouse; conditions: LPSEc 200 ng/mL; for IL-1β level: 1 μM; for inhibition at 1 µM: Mus musculus, BV-2, 1 μM, read-out: percentage of IL-1β inhibition
Procedure: as §2

IC50 [4] [nM]	SMILES	GSTP1 gene expression foldchange (compared to control) [1]	GPX2 gene expression foldchange (compared to control) [2]	GCLC gene expression foldchange (compared to control) [3]	G6PDX gene expression foldchange (compared to control) [5]	IFN-γ level ([6]; NRF2-proficient BV-2 cells) [pg/mL]	IFN-γ level ([6]; NRF2-silenced BV-2 cells) [pg/mL]	inhibition at 1 µM ([6]; NRF2-proficient BV-2 cells) [%]	inhibition at 1 µM ([6]; NRF2-silenced BV-2 cells) [%]	GSTA4 gene expression foldchange (compared to control) [7]	NRF2 gene expression foldchange (compared to control) [11]	NQO1 gene expression foldchange (compared to control) [12]	GSTM2 gene expression foldchange (compared to control) [13]	GCLM gene expression foldchange (compared to control) [14]	IL-1β level ([15]; NRF2-proficient BV-2 cells) [pg/mL]	IL-1β level ([15]; NRF2-silenced BV-2 cells) [pg/mL]	inhibition at 1 µM ([15]; NRF2-proficient BV-2 cells) [%]	inhibition at 1 µM ([15]; NRF2-silenced BV-2 cells) [%]	further results
420 ± 130	CCCCC/C=C/C(=O)CCc1ccc(O)c(OC)c1 [6-shogaol, reference compound]	2.12 ± 0.09	1.63 ± 0.06	1.20 ± 0.05	2.27 ± 0.03	25.75 ± 0.72	37.52 ± 1.01	36.3	10.5	1.53 ± 0.02	1.26 ± 0.05	1.20 ± 0.06	1.19 ± 0.05	2.28 ± 0.10	43.30 ± 0.62	88.57 ± 0.55	53.7	5	viability at 24 h ([8]; Hepa-1c1c7 cells, 5 and 10 μM): < 90%; viability at 24 h, 5 µM ([9]; concentrations ≥ 5 μM): < 90%; free thiol content ([10]; NRF2-proficient BV-2 cells, untreated cells = 100%): 35.03 ± 3.70%
50 ± 1	COc1cc(CCC(=O)/C=C/c2cc(-c3ccccc3)cs2)ccc1O [STC5, (E)-5-(4-Hydroxy-3-methoxyphenyl)-1-(4-phenylthiophen-2-yl)pent-1-en-3-one]	3.71 ± 0.09	3.25 ± 0.11	2.31 ± 0.05	3.83 ± 0.02	14.34 ± 1.10	31.19 ± 0.85	42.7	25.6	2.52 ± 0.03	3.21 ± 0.08	2.94 ± 0.01	3.19 ± 0.05	3.91 ± 0.09	–	72.50 ± 1.32	71.4	22.3	reactivity with thiols lower than that of 6-shogaol ([10]; versus 6-shogaol): about 70%
870 ± 90	COc1cc(CCC(=O)/C=C/c2ccc([N+](=O)[O-])s2)ccc1O [STC8, (E)-5-(4-Hydroxy-3-methoxyphenyl)-1-(5-nitrothiophen-2-yl)pent-1-en-3-one]	–	–	–	–	24.63 ± 0.64	37.86 ± 1.69	–	–	–	–	–	–	–	39.93 ± 0.74	77.33 ± 0.93	–	–	viability at 24 h ([8]; Hepa-1c1c7 cells, 2.5, 5 and 10 μM): < 90%; viability at 24 h, 2.5 µM ([9]; concentrations ≥ 2.5 μM): < 90%
